# Data published in paper PMC12345137 (mBio, 2025).
# Where two headings read alike, the source gives them in different places.
# Assays:
# [1] = biological target: S. epidermidis agr-III (Staphylococcus epidermidis, UniProt Q8VSX2); test: cell-based; type: cell-based; conditions: fluorescent reporter strain; peptides tested at 1000, 50, 2.5, 0.125 nM or in dose-response
# Protocol: (§1) Peptides were evaluated for the ability to interfere with agr-mediated quorum sensing in S. aureus (AH1677, AH430, AH1747, and AH1872 for agr-I–IV, respectively) ([40]) using reporter strains expressing yellow fluorescent protein (YFP) upon agr activation. Interference with agr-mediated quorum sensing in S. epidermidis (AH3408, AH3623, and AH3409 for agr-I–III, respectively) ([45]), and S. lugdunensis (AH4031 for agr-I) ([37]) was evaluated using reporter strains expressing superfolder green fluorescent protein (sGFP) upon agr activation. Overnight cultures of the reporter strains were grown in TSB medium containing chloramphenicol (CAM, 10 μg/mL for S. aureus) or erythromycin (ERM, 10 μg/mL of S. epidermidis and S. lugdunensis) and diluted 1:100 in fresh TSB medium containing the same antibiotic. Assays were performed in sterile black 96-well plates with a clear bottom. […] DMSO stock solutions of peptides (1 mM) were diluted in TSB media and added (15 μL) in technical triplicate to the 96-well plate, followed by diluted bacterial overnight cultures (135 μL). Control wells for 100% agr activity were wells replacing the peptide solution with TSB medium (15 μL). […] Wells containing 150 μL TSB medium were used to measure background fluorescence. The 96-well plates were incubated in a humidified incubator at 37°C shaking at 1,000 rpm for 22–24 h and fluorescence (for GFP: excitation 479 nm, emission 520 nm; for YFP: excitation 500 nm, emission 541 nm; automatic gain), and OD600 values were subsequently measured using a plate reader. Background fluorescence was subtracted from all wells and further normalized to the corresponding OD600 value of the respective wells. The average fluorescence of control wells was used as a relative measure for 100% activation of the agr-circuit, and bar graphs were generated using GraphPad Prism 10.4 software. All assays were performed in at least a biological duplicate.
# (§2) Overnight cultures of the reporter strains were grown in TSB medium containing chloramphenicol (CAM, 10 μg/mL for S. aureus) or erythromycin (ERM, 10 μg/mL of S. epidermidis and S. lugdunensis) and diluted 1:100 in fresh TSB medium containing the same antibiotic. Assays were performed in sterile black 96-well plates with clear bottoms. Peptide solutions (15 μL) in 1:5 serial dilutions from DMSO stock solutions (1 mM) in TSB medium were added to the 96-well plate in technical duplicate followed by diluted bacterial overnight cultures (135 μL). Control wells for 100% agr activity were wells replacing the peptide solution with TSB medium (15 μL). Wells containing 150 μL TSB medium were used to measure background fluorescence. The 96-well plates were incubated in a humidified incubator at 37°C shaking at 1,000 rpm for 22–24 h and fluorescence (for GFP: excitation 479 nm, emission 520 nm; for YFP: excitation 500 nm, emission 541 nm; automatic gain), and OD600 values were subsequently measured using a plate reader. Background fluorescence was subtracted from all wells and further normalized to the corresponding OD600 value of the respective wells. The average fluorescence of control wells was used as a relative measure for 100% activation of the agr-circuit. Relative agr activity was plotted to obtain IC50 values by non-linear regression with variable slope using GraphPad Prism 10.4 software. All assays were performed in biological triplicate.
# [2] = biological target: S. lugdunensis agr-I (Staphylococcus lugdunensis, UniProt Q8VSW5); test: cell-based; conditions: fluorescent reporter strain; peptides tested at 1000, 50, 2.5, 0.125 nM or in dose-response
# Protocol: as §1, §2
# [3] = biological target: S. aureus agr-IV (Staphylococcus aureus, UniProt Q309Z2); test: cell-based; type: cell-based; conditions: fluorescent reporter strain; peptides tested at 1000, 50, 2.5, 0.125 nM or in dose-response
# Protocol: as §1, §2
# [4] = biological target: SA AgrC-IV (Staphylococcus aureus, UniProt Q309Z2); conditions: ± SEM, determined previously, ref (1), cited from earlier work; for EC50: read-out: EC50, SA AgrC-IV, b-lactamase assay
# [5] = biological target: SA AgrC-III (Staphylococcus aureus, UniProt O33590); conditions: 100 nM cognate AIP, ± SEM, determined previously, ref (1), cited from earlier work
# [6] = biological target: SA AgrC-II (Staphylococcus aureus, UniProt O33587); conditions: 100 nM cognate AIP; ± SEM; -b = no inhibition recorded at the highest AIP concentration tested; determined previously; ref (1); read-out: IC50, SA AgrC-II, b-lactamase assay; cited from earlier work
# [7] = tested on: S. aureus (SA) agr-I; conditions: fluorescence, cited from earlier work
# [8] = tested on: S. epidermidis (SE) agr-I; conditions: fluorescence, cited from earlier work
# [9] = tested on: S. epidermidis (SE) agr-III; conditions: fluorescence; ref (13); cited from earlier work
# [10] = tested on: S. epidermidis (SE) agr-II; conditions: fluorescence, cited from earlier work
# [11] = tested on: S. aureus (SA) agr-III; conditions: fluorescence, cited from earlier work
# [12] = tested on: S. aureus (SA) agr-II; conditions: fluorescence, cited from earlier work
# [13] = tested on: S. aureus (SA) agr-IV; conditions: fluorescence, cited from earlier work
# [14] = only partial inhibition observed, read-out: IC50, SA AgrC-III, b-lactamase assay, only partial inhibition observed (footnote a)
substance,measurement,setting,value
S. simulans AIP-III Y2A [compound 46],"QS interaction in words (inhibition / activation), S. epidermidis agr-III",[1],lost the ability to activate
S. simulans AIP-III P4A [compound 47],"QS interaction in words (inhibition / activation), S. lugdunensis agr-I",[2],increase in inhibition
S. simulans AIP-III 8-mer [compound 52],"QS interaction in words (inhibition / activation), S. aureus agr-IV",[3],increased inhibition
S. saprophyticus AIP-I [compound 19],"IC50, SA AgrC-IV, b-lactamase assay","[4]; 100 nM cognate AIP, -b = no inhibition recorded at the highest AIP concentration tested",-b
same,"IC50, SA AgrC-III, b-lactamase assay",[5]; -b = no inhibition recorded at the highest AIP concentration tested,-b
S. schleiferi AIP-I [compound 30],IC50,[6],86 ± 6 nM
same,EC50,[4],31 ± 6 nM
same,IC50,[5]; [14],80 ± 16 nM
S. hominis AIP-III [compound 12],IC50,[7]; ref (13),11 nM
same,IC50,[8]; ref (13),4 nM
same,IC50,[6],580 ± 61 nM
same,IC50,[9],3 nM
same,IC50,[10]; ref (13),3 nM
same,IC50,[11]; ref (13),6 nM
same,EC50,[4],54 ± 5 nM
same,IC50,[5]; [14],220 ± 46 nM
same,"QS interaction in words (inhibition / activation), S. aureus agr-IV",[3],activated
same,IC50,[12]; ref (13),4 nM
S. simulans AIP-III G7A [compound 49],"QS interaction in words (inhibition / activation), S. epidermidis agr-III",[1],loss of activation
S. hominis AIP-V [compound 14],IC50,[7]; ref (13),43 nM
same,IC50,[8]; ref (13),10 nM
same,IC50,[9],2 nM
same,IC50,[10]; ref (13),22 nM
same,IC50,[11]; ref (13),4 nM
same,IC50,[13]; ref (13),3810 nM
same,IC50,[12]; ref (13),59 nM
S. simulans AIP-II/III Y3A/N3A [compound 38],"QS interaction in words (inhibition / activation), S. epidermidis agr-III",[1],inhibitor
S. warneri AIP-I [compound 16],IC50,[7]; ref (14),10 nM
same,IC50,[8]; ref (14),3 nM
same,IC50,[6],1000 ± 105 nM
same,IC50,[10]; ref (14),19 nM
same,IC50,[11]; ref (14),13 nM
same,IC50,"[4]; 100 nM cognate AIP, -b = no inhibition recorded at the highest AIP concentration tested, read-out: IC50, SA AgrC-IV, b-lactamase assay",> 1000 nM
same,IC50,"[5]; -b = no inhibition recorded at the highest AIP concentration tested, read-out: IC50, SA AgrC-III, b-lactamase assay",460 ± 59 nM
same,IC50,[13]; ref (14),146 nM
same,IC50,[12]; ref (14),4 nM
